Test [1] deals with HeLa. Kind of test: Inhibition of cell cycle progression in human HeLa cells harboring Fucci2 assessed as cell cycle arrest at G2/M phase at 2 times of IC50 incubated for 2 days by fluorescence microscopic analysis. It is filed as functional, cell-based. The settings on record: time 2.0 day.
Test [2] concerns HeLa. Kind of test: Inhibition of cell cycle progression in human HeLa cells harboring Fucci2 assessed as cell cycle arrest at S phase at 2 times of IC50 incubated for 2 days by fluorescence microscopic analysis. It is filed as functional, cell-based. The settings on record: time 2.0 day.
The test system of test [3] is HeLa. Put plainly: Cytotoxicity against human HeLa cells harboring Fucci2 assessed as reduction in cell growth incubated for 3 days by MTT assay. Type of test: functional, cell-based. The settings on record: 72 h. (In general: Tetrazolium dyes change colour on reduction, which living cells bring about.)
For test [4], the system named is HeLa. Put plainly: Induction of cell cycle arrest in human HeLa cells assessed as accumulation at G1 phase at 15 uM incubated for 1 day by propidium iodide staining based flow cytometry analysis (reference value: 59.7 %). Type of test: functional. On the technique in general: Flow cytometry measures light scatter and fluorescence of single cells or particles in a stream.

For test [5], the system named is HeLa. Kind of test: Induction of cell cycle arrest in human HeLa cells assessed as accumulation at S phase at 15 uM incubated for 1 day by propidium iodide staining based flow cytometry analysis (reference value: 26.1 %). It is filed as functional.
The test system of test [6] is HeLa. Put plainly: Induction of cell cycle arrest in human HeLa cells assessed as accumulation in G2/M phase at 15 uM incubated for 1 day by propidium iodide staining based flow cytometry analysis (reference value: 14.2 %). Type of test: functional.

Activity calls are given as the source filed them. The rule behind the calls is not given here.

For orientation: IC50 means the midpoint of a concentration-inhibition curve. As to `CC1=CCC[C@H]2[C@](C)(CC3=C(O)C(=O)C=C(NCCC[S+](C)[O-])C3=O)[C@@H](C)CC[C@]12C` (stereo partly drawn) [NAKIJIQUINONE I], the inhibition result in the test on HeLa [1] and with HeLa [2] was “Active” in each case. Also, the IC50 with HeLa [3] was 16 µM.

`CC1=CCC[C@H]2[C@](C)(CC3=C(O)C(=O)C=C(NCCC(C)C)C3=O)[C@@H](C)CC[C@]12C` [NAKIJIQUINONE N]: the inhibition result in the test on HeLa [1] and in the test on HeLa [2] was “Active” throughout. Also, the IC50 in the test on HeLa [3] is 30 µM.

For `CC1=CCC[C@H]2[C@](C)(CC3=C(O)C(=O)C=C(N)C3=O)[C@@H](C)CC[C@]12C`, the inhibition entry in the test with HeLa [1] and in the test on HeLa [2] was “Active” each time. Moreover, the Activity in the test on HeLa [4] is 27.2%; with HeLa [5] it was 46.5%; in the test with HeLa [6], 26.3%. Further, the 50% inhibitory concentration (IC50) in the test on HeLa [3] was 18 µM.

For the compound `CC1=CCC[C@H]2[C@](C)(CC3=C(O)C(=O)C=C(NCCc4ccccc4)C3=O)[C@@H](C)CC[C@]12C` [NAKIJIQUINONE Q], the inhibition entry in the test with HeLa [1] and in the test with HeLa [2] was “Active” in each case. In the test on HeLa [3], the IC50 was found to be 36 µM.

With `COC(=O)c1ccc(O)c(C[C@]2(C)[C@@H](C)CC[C@]3(C)C(C)=CCC[C@@H]23)c1`, the inhibition result with HeLa [1] and in the test on HeLa [2] was “inactive” throughout. Further, the 50% inhibitory concentration (IC50) in the test on HeLa [3] was determined as 13 µM.
